Test results taken from PubChem BioAssay (NCI).
Several values for one entry are separate records, joined by “and”; a condition that tells them apart may be missing. Equal values may be shown once.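 Where inhibition never reached the appropriate level, the endpoint shown equals the highest concentration tested. Otherwise, values were interpolated linearly from a five-concentration, 48-hour dose response in 96-well plates. Here, GI50 denotes the concentration required for 50% inhibition of growth. TGI is the concentration that stops growth completely.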

Tests used:
Test in all cases: NCI tumour cell line growth inhibition, 48 h
LOX IMVI melanoma = test system: LOX IMVI melanoma
HCC-2998 colon = test system: HCC-2998 colon
OVCAR-4 ovarian = test system: OVCAR-4 ovarian
MOLT-4 leukemia = test system: MOLT-4 leukemia
MCF7 breast = test system: MCF7 breast
UO-31 renal = test system: UO-31 renal
NCI-H460 lung = test system: NCI-H460 lung
NCI-H226 lung = test system: NCI-H226 lung
SK-MEL-2 melanoma = test system: SK-MEL-2 melanoma
SK-MEL-28 melanoma = test system: SK-MEL-28 melanoma

Row | SMILES | TGI (LOX IMVI melanoma) | TGI (HCC-2998 colon) | TGI (OVCAR-4 ovarian) | TGI (MOLT-4 leukemia) | TGI (MCF7 breast) | TGI (UO-31 renal) | TGI (NCI-H460 lung) | TGI (NCI-H226 lung) | TGI (SK-MEL-2 melanoma) | TGI (SK-MEL-28 melanoma) | GI50 (LOX IMVI melanoma) | GI50 (HCC-2998 colon) | GI50 (OVCAR-4 ovarian) | GI50 (MOLT-4 leukemia) | GI50 (MCF7 breast) | GI50 (UO-31 renal) | GI50 (NCI-H460 lung) | GI50 (SK-MEL-2 melanoma) | GI50 (SK-MEL-28 melanoma)
1 | C=C(C)[C@@]1(O)O[C@H]2C[C@@]3(C)OC(=CC3=O)/C(C)=C\[C@@H]3OC(=O)[C@@]1(C)[C@H]32 | 29.2 µM | 35.1 µM | > 100 µM | 40.4 µM | 29.1 µM | 57 µM | > 76.8 µM | 69.8 µM | > 56.3 µM | 30.4 µM |  |  |  |  |  |  |  |  | 
2 | COc1cc2c(cc1OCCCN1CCN(CCCOc3cc4c(cc3OC)C(=O)N3CCC[C@H]3C=N4)CC1)C=CC(C)(C)O2 | 2.09 µM | 2.07 µM | 3.53 µM | 0.765 µM | 1.69 µM | 3.49 µM | 2.32 µM |  | 2.97 µM | 2.83 µM | 0.755 µM | 0.683 µM | 1.56 µM | 0.249 µM | 0.423 µM | 1.51 µM | 1.1 µM | 1.58 µM | 1.51 µM
3 | FC(F)(F)c1ccc(-c2nc(-c3nc4cc(Cl)c(Cl)cc4[nH]3)c3ccccn23)cc1 |  | > 100 µM | 5.41 µM | > 100 µM |  |  |  |  | 52.2 µM |  |  | > 100 µM | 1.87 µM | > 100 µM |  |  |  | 9.49 µM | 
4 | CC1(C)O[C@H]2Cn3c(c(C#N)c4ccccc43)[C@H]2O1 |  | > 100 µM | > 100 µM |  | > 100 µM | > 100 µM | > 100 µM |  | > 100 µM | > 100 µM |  |  |  |  |  |  |  |  | 
5 | CCC1(O)CC(OC2CC(N(C)C)C(OC3CC4OC5CC(=O)C(C)OC5OC4C(C)O3)C(C)O2)c2c(cc3c(c2O)C(=O)c2c(O)ccc(O)c2C3=O)C1C(=O)OC (configuration not stated) |  | 0.0607 µM and 0.0199 µM and < 0.0465 µM |  |  |  |  |  |  | 0.0309 µM and 0.0149 µM and 0.0148 µM |  | 0.00915 µM | 0.021 µM and 0.01 µM |  |  |  |  |  | 0.00919 µM and 0.00439 µM and 0.00879 µM | 
6 | COC(=O)C(=O)C(C(=O)Nc1cccc(C)c1C)C1Sc2ccccc2NC1=O (configuration not stated) | > 25 µM | > 25 µM | > 25 µM | > 25 µM |  | > 25 µM | > 25 µM | > 25 µM | 18.3 µM | > 25 µM |  |  |  |  |  |  |  |  | 
7 | C=C(C)C(=O)CC[C@@H](C)[C@H]1[C@@H](OC2OC(CO)C(O)C(O)C2O)C[C@@]2(C)[C@@H]3C[C@H](O)C4C(C)(C)[C@@H](OC5OC(CO)C(O)C(O)C5O)CC[C@@]45C[C@@]35CC[C@]12C (some centres not stated) | > 100 µM | > 100 µM | > 100 µM | > 100 µM | > 100 µM | > 100 µM | > 100 µM |  | > 100 µM | > 100 µM |  |  |  |  |  |  |  |  | 
8 | CC1=NN(C(=O)CSc2nnc(SCC(=O)N3N=C(C)CC3(O)c3ccccc3)s2)C(O)(c2ccccc2)C1 (configuration not stated) | > 100 µM | > 100 µM | > 100 µM | > 100 µM | > 100 µM | > 100 µM | > 100 µM |  | > 100 µM | > 100 µM |  |  |  |  |  |  |  |  | 
9 | CCC(C)[C@@H](NCc1ccccc1)[C@H](OCc1ccccc1)[C@@H]1COC(C)(C)O1 (some centres not stated) | 38 µM |  | > 100 µM | 62.3 µM | 44.4 µM | 41.3 µM |  | 30.6 µM | 35 µM | 71.4 µM |  |  |  |  |  |  |  |  | 
10 | O=C(Nc1cccc2ccccc12)Oc1ccccc1C1CCCCC1 | 31.1 µM | 34.3 µM | 32.7 µM | 55.3 µM |  | 34.6 µM | 33 µM | 32.7 µM | 40.4 µM | 38.1 µM |  |  |  |  |  |  |  |  | 
11 | O=c1cc(CNC2CCCC2)[nH]c(=O)[nH]1 | > 100 µM | > 100 µM | > 100 µM | > 100 µM | > 100 µM | > 100 µM | > 100 µM |  | > 100 µM | > 100 µM |  |  |  |  |  |  |  |  | 
12 | O=C(CSCC(=O)N/N=C/c1cc(I)cc(I)c1O)N/N=C/c1cc(I)cc(I)c1O |  | 38.1 µM | > 100 µM | 29.2 µM | 70.7 µM | 44.5 µM | 82 µM | 41.1 µM | 47.4 µM | > 100 µM |  |  |  |  |  |  |  |  | 
13 | Nc1nc(N)c2ncn(CC3CCC(CO)C3)c2n1 (configuration not stated) | > 100 µM | > 100 µM | > 100 µM | > 100 µM | > 100 µM | > 100 µM |  | > 100 µM | > 100 µM | > 100 µM |  |  |  |  |  |  |  |  | 
14 | c1ccc(C2=NC3(CCCCC3)N(c3nc4ccccc4s3)N2)nc1 | 51.6 µM |  | > 100 µM | > 100 µM | > 100 µM | > 100 µM | 32 µM | 65.6 µM | 42.6 µM | > 100 µM |  |  |  |  |  |  |  |  | 
15 | CNC(=O)c1ccccc1-[s+]1c2ccccc2c(=O)n1C (configuration not stated) | > 100 µM |  | > 100 µM | > 100 µM | > 100 µM | > 100 µM |  | > 100 µM | > 100 µM | > 100 µM |  |  |  |  |  |  |  |  | 
16 | COc1cccc2c1OC1c3ccccc3OCC1C2 (configuration not stated) | > 100 µM | > 100 µM |  | > 100 µM | > 100 µM | > 100 µM |  | > 100 µM | > 100 µM |  |  |  |  |  |  |  |  |  | 
17 | O=S(=O)(c1ccc(Br)cc1)n1c2ccc(Br)cc2c2nc3ccccc3nc21 | > 100 µM | > 100 µM | > 100 µM | > 100 µM |  | > 100 µM | > 100 µM | > 100 µM | > 100 µM | > 100 µM |  |  |  |  |  |  |  |  | 
18 | c1csc(-c2ccc(-c3ccc(-c4ccc(-c5cccs5)s4)s3)s2)c1 |  | > 100 µM |  | > 100 µM | > 100 µM | > 100 µM | > 100 µM | > 100 µM |  |  |  |  |  |  |  |  |  |  | 
19 | CCCCNC1CCC2(SCCS2)c2[nH]c3ccccc3c21 (configuration not stated) | 14.4 µM | 38.8 µM | > 100 µM | 33.5 µM | 13.2 µM | > 89.4 µM | > 100 µM | > 73.7 µM |  | > 100 µM |  |  |  |  |  |  |  |  | 
20 | CC(=O)NC1C(OCc2ccccc2)OC(CO)C(O)C1OCC(=O)NC(C)C(=O)NC(CCC(=O)NCCCCNc1ccc([N+](=O)[O-])c2[nH]c3ccccc3c(=O)c12)C(N)=O (configuration not stated) | > 100 µM | > 100 µM | > 100 µM |  | > 100 µM | > 100 µM | > 100 µM | > 100 µM | > 100 µM | > 100 µM |  |  |  |  |  |  |  |  | 
21 | O=C(O)[C@H]1[C@@H](C2CCCCC2)O[C@@H](C2CCCCC2)O[C@H]1C(F)(F)F | 36.5 µM | 38.8 µM | > 100 µM | 45 µM |  | 66.2 µM | 48.4 µM | 41.6 µM |  | 41.4 µM |  |  |  |  |  |  |  |  | 
22 | O=C1N[C@H]2c3c(Cl)sc(Cl)c3/C(=N/O)[C@H]2O1 |  | > 100 µM |  | > 100 µM | > 100 µM | > 100 µM | > 100 µM |  | > 100 µM | > 100 µM |  |  |  |  |  |  |  |  | 
23 | O=C(O)CCCl | > 5000 µM |  | > 5000 µM | > 5000 µM |  | > 5000 µM | > 5000 µM | > 5000 µM | > 5000 µM | > 5000 µM |  |  |  |  |  |  |  |  | 
24 | Nc1nc2c(=O)c3ccccc3sc2s1 | > 100 µM |  |  | > 100 µM | > 100 µM | > 100 µM | > 100 µM | 79.1 µM | > 100 µM | > 100 µM |  |  |  |  |  |  |  |  | 
